Test system: HepG2
Test: Cytotoxicity against human HepG2 cells
Assay type: functional, cell-based

Structure (SMILES)	IC50 [µM]
O=C(/C=C/c1ccc(O)c(O)c1)O[C@@H]1O[C@H](COC(=O)[C@H]2CC(=O)c3oc(=O)c4cc(O)c(O)c(O)c4c32)[C@@H](O)[C@H](O)[C@H]1O [BALANOPHOTANNIN D]	17.4
O=C(O[C@@H]1O[C@H](COC(=O)[C@H]2CC(=O)c3oc(=O)c4cc(O)c(O)c(O)c4c32)[C@@H](O)[C@H](OC(=O)c2cc(O)c(O)c(O)c2)[C@H]1O)c1cc(O)c(O)c(O)c1 [BALANOPHOTANNIN E]	4.22
O=C(O)C[C@@H]1C(=O)O[C@H]2[C@H](O)[C@@H](O)[C@H](OC(=O)/C=C/c3ccc(O)c(O)c3)O[C@@H]2COC(=O)c2cc(O)c(O)c3c2[C@H]1C(=O)O3 [BALANOPHOTANNIN F]	48.4
O=C(O)C[C@@]12Oc3c(O)c(O)cc(C(=O)OC[C@H]4O[C@@H](OC(=O)/C=C/c5ccc(O)c(O)c5)[C@H](O)[C@@H](O)[C@@H]4O)c3[C@@H]1[C@H](C(=O)O)OC2=O [BALANOPHOTANNIN G]	18
O=c1[nH]cc(F)c(=O)[nH]1 [FLUOROURACIL]	18.7

— ChEMBL document CHEMBL1149850, “Cytotoxic hydrolyzable tannins from Balanophora japonica” (J Nat Prod, 2008)
